# Assay results published in patent publication US4880791A, “Combination product composed of xanthine derivatives and O-acetylsalicylic acid or its pharmacologically tolerated salts, and its use” (priority 1984, dated 1989).
# Tests used:
# [1] = system: mucosa of the glandular stomach; assay: test of gastric tolerance (ulcerogenic effect); format: in vivo, rat (male Sprague-Dawley); conditions: for Number of animals with ulcers: 10 animals
# Description: 24 hours after the last medication, the stomach was cut open along the lesser curvature, cleaned under running water, and inspected for mucosal lesions. All lesions visible on macroscopic inspection of the mucosa of the glandular stomach were regarded as ulcers.
# [2] = system: tendency to thrombosis in arthritic rat; assay: laser-induced tendency to thrombosis in arthritic rats; format: in vivo; conditions: oral 21 days
# Description: (§1) The hemorheological, antithrombotic, antiaggregatory and antiinflammatory effects of the combinations according to the invention were investigated after oral administration for 21 days in the pathological model of adjuvant arthritis (induced with Mycobacterium butyricum) is the rat by the method of Clincal Hemorheology 3 (1983) 469-480, and were compared with those of the appropriate individual substances. Blood was taken from the thoracic aorta 1 hour after the last administration of substance. All the details of the determination of the hemorheological effect were as described in Clinical Hemorheology 4 (1984) 263-273. The erythocyte deformability was quantitatively determined in a filtrometer (Myrenne MF 4, Roetgen, Germany) by evaluation of the initial gradient of the flow curve.
# The antithrombotic effect was measured using the laser model as described above.
# human blood platelets = conditions: cited from earlier work
# [3] = system: adjuvant arthritis (Mycobacterium butyricum) in the rat; assay: antiinflammatory effect in adjuvant arthritis (paw edema, necrosis index); format: in vivo
# Description: as §1
# The antiflammatory effect was quantitatively measured, as quoted above, using the volume of the edema of the paw and using the standard necrosis index.
# [4] = customary doses; cited from earlier work
# [5] = system: induced platelet aggregation; assay: collagen-induced platelet aggregation in arthritic rats; format: in vivo, rat; conditions: oral 21 days
# Description: as §1
# The measurements of platelet aggregation were carried out as described above in detail. However, instead of arachidonic acid 0.04 mg of collagen was used to induce platelet aggregation in 1 ml of platelet-rich plasma (PA II aggregometer from Myrenne, Roetgen).
# vascular cyclooxygenase = conditions: cited from earlier work
# [6] = system: laser-induced thrombosis in the arterioles and venules of the rat mesentery; assay: laser-induced thrombosis in arterioles of the rat mesentery; format: in vivo, rat (female Sprague-Dawley); conditions: for Changes from controls, % / Changes from controls, absolute / Number of shots: single substance
# Description: The evaluation was carried out by analysis by vital microscopy (Nature, 218 (1968) 887 and Haemostasis 13 (1983) 61 and IRCS Med. Sci. 12 (1984) 91).
# The test substances were administered in 0.9% sodium chloride solution (which contained 1% carboxymethylcellulose (Serva, Heidelberg)) either orally, intraperitoneally or intravenously. Control animals were treated in the corresponding manner but without the test substances. The experimental animals used were male or female Sprague-Dawley or Wistar rats.
# The animals which were to be investigated underwent s.c. premedication with 0.1 mg of atropine sulfate in solution and were anesthetized with 100 mg of ketamine hydrochloride and 4 mg of xylazine per kg of body weight i.p. The investigation made use of arterioles and venules of the mesentery, which was coated with degassed liquid paraffin, having a diameter of about 13 μm. The beam of a 4 W argon laser (supplied by Spectra Physics, Darmstadt) was introduced coaxially, by means of a beam adaptation and adjustment system (supplied by BTG, Munich), into the inverted optical path of a microscope (ICM 405, LD-Epipland 40/0.60; supplied by Zeiss, Oberkochen). The wavelength used was 514.5 nm, with an energy above the objective of 30.5 mW. The exposure time per single shot was 1/15 sec. All the measuring operations were recorded by video camera (Trinicon tube, Sony, Cologne) and stored in a recorder (Sony, U-matic 3/4"). The test substances were administered in various doses to the experimental animals, orally one hour, and on i.v. administration 10 min., before the start of the experiment, control animals receiving the same amount of placebo.
# The number of shots needed to induce a defined thrombus is counted.
# The results of the experiment were subjected to statistical analysis using the .chi.^2 test (L. Cavalli-Sforza, Biometrie (Biostatistics), Stuttgart, 1969, pages 49 et seq.). […]
# cyclooxygenase = conditions: cited from earlier work
# rat aortas = conditions: treatment of the rats with acetylsalicylic acid; cited from earlier work
# [7] = system: erythrocyte filterability; assay: erythrocyte filterability in adjuvant arthritis rats; format: in vivo, rat; conditions: oral 21 days
# Description: as §1
# [8] = Table 1b, 1 mg/kg acetylsalicylic acid without pentoxifylline
smiles,measurement,setting,value
"CC(=O)Oc1ccccc1C(=O)O [Acetylsalicylic acid, O-acetylsalicylic acid]",Number of animals with ulcers,[1]; acetylsalicylic acid 25 mg/kg oral,5
same,Number of animals with ulcers,[1]; acetylsalicylic acid 50 mg/kg oral,7
same,Number of animals with ulcers,[1]; acetylsalicylic acid 100 mg/kg oral,9
same,Number of animals with ulcers,"[1]; acetylsalicylic acid 1,25 mg/kg oral",1
same,Number of animals with ulcers,"[1]; acetylsalicylic acid 12,50 mg/kg oral",2
same,gastric ulcerogenicity,[1]; acetylsalicylic acid after pretreatment with pentoxifylline,unaffected by pretreatment with pentoxifylline
same,tendency to thrombosis (number of shots),"[2]; 10 mg, healthy = 100%, untreated arthritic 46%",47%
same,tendency to thrombosis (number of shots),[2]; 180 mg,91%
same,aggregation of human blood platelets,human blood platelets,inhibitor of the aggregation
same,"Percentage improvement, necrosis index",[3]; 10 mg,8%
same,"Percentage improvement, volume of paw edema, left paw",[3]; 10 mg,2%
same,"Percentage improvement, volume of paw edema, right paw",[3]; 10 mg,3%
same,"Percentage improvement, necrosis index",[3]; 180 mg,28%
same,"Percentage improvement, volume of paw edema, left paw",[3]; 180 mg,28%
same,"Percentage improvement, volume of paw edema, right paw",[3]; 180 mg,26%
same,undesired side effects,[4],"asthma, allergic urticaria, analgesic nephropathy and peptic ulcers"
same,induced platelet aggregation,"[5]; 10 mg, untreated arthritic = 100%, healthy 0%",62%
same,induced platelet aggregation,[5]; 180 mg,35%
same,inhibition of vascular cyclooxygenase,vascular cyclooxygenase,found only at higher doses
same,"Changes from controls, %",[6]; 1 mg/kg oral,-13%
same,"Changes from controls, absolute",[6]; 1 mg/kg oral,"-0,35"
same,Number of shots,[6]; 1 mg/kg oral,"1,88"
same,"Changes from controls, %",[6]; 5 mg/kg oral,-18%
same,"Changes from controls, absolute",[6]; 5 mg/kg oral,"-0,38"
same,Number of shots,[6]; 5 mg/kg oral,"1,79"
same,"Changes from controls, %",[6]; 10 mg/kg oral,35%
same,"Changes from controls, absolute",[6]; 10 mg/kg oral,"0,75"
same,Number of shots,[6]; 10 mg/kg oral,"2,92"
same,"Changes from controls, %",[6]; 30 mg/kg oral,48%
same,"Changes from controls, absolute",[6]; 30 mg/kg oral,"1,04"
same,Number of shots,[6]; 30 mg/kg oral,"3,21"
same,% change from controls,[6]; [8],-13%
same,-x (number of shots),[6]; [8],"1,90"
same,effect in laser-induced thrombosis,[6]; oral dose 10 mg/kg,significant effect
same,effect in laser-induced thrombosis,[6]; single oral dose 5 mg/kg,not significant
same,cyclooxygenase localized in the blood platelets,cyclooxygenase,inhibits the enzyme cyclooxygenase
same,release of the substance having antiaggregatory activity stimulated by pentoxifylline,rat aortas,can be suppressed
same,erythrocyte filterability,"[7]; 10 mg, healthy = 100%, untreated arthritic 59%",63%
same,erythrocyte filterability,[7]; 180 mg,68%
same,erythrocyte filterability in arthritic rats (in words),[7],can be increased again
